Target: T1, Human soluble guanylate cyclase enzyme (hsGC) (Homo sapiens, UniProt Q02108+Q02153)
T1 construct: purchased Enzo Inc. ALX-201-177
T1 sequence (Q02153 1-619): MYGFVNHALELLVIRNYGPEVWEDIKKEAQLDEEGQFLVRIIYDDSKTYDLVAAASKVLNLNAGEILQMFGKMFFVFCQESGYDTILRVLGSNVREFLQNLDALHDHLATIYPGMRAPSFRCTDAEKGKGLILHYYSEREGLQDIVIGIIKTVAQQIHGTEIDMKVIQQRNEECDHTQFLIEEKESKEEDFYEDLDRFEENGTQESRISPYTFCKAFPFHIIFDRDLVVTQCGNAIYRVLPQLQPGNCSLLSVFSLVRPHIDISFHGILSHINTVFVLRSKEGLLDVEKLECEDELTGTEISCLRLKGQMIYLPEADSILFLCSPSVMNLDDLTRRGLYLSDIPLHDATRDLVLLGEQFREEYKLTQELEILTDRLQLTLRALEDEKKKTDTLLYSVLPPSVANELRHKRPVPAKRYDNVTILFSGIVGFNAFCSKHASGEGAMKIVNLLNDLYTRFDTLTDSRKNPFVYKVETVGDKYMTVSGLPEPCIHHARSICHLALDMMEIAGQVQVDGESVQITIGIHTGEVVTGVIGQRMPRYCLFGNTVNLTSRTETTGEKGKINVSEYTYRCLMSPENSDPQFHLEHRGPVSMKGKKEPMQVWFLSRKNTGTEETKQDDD
T1 sequence (Q02108 1-690): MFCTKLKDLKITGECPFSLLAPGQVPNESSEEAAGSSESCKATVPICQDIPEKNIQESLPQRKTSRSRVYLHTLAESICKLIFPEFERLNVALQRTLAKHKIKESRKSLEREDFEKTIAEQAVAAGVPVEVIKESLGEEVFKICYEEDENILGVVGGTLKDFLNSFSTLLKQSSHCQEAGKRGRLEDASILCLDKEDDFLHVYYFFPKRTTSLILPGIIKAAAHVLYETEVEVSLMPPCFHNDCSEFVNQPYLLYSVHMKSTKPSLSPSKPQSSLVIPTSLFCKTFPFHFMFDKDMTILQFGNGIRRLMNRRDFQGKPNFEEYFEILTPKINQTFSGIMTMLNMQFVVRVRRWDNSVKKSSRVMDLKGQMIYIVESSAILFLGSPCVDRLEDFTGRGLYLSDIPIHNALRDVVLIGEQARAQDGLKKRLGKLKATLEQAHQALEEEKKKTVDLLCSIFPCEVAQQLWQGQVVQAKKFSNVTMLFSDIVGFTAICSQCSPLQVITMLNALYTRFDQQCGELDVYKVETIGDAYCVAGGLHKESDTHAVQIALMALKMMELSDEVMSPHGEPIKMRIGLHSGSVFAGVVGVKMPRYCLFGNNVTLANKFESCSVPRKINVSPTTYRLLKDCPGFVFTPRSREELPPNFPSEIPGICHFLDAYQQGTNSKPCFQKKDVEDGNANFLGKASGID
Assay: Purified human sGC enzyme activity assay (with or without SNP)
Type: biochemical
Conditions: for sGC Enzyme Activity Increase at 30 μM with SNP / sGC Enzyme Activity Increase at 30 μM without SNP: 30 μM compound
How it was run: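 Purified human sGC (5 ng) incubated 30 min at 37° C with compound at 10 or 30 μM, 300 μM GTP, 2 mM MgCl2 and 1 mM IBMX at pH 8.0, with or without 1 μM SNP. cGMP formed was quantified against a standard curve. Results are given as fold-change in specific activity over DMSO (or DMSO+SNP) control.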

[1] = 1 μM SNP, specific activity vs DMSO and SNP
[2] = without SNP, specific activity vs DMSO control

| sGC Enzyme Activity Increase at 30 μM with SNP [1] | sGC Enzyme Activity Increase at 30 μM without SNP [2] | sGC Enzyme Activity Increase at 10 μM with SNP (10 μM compound, 1 μM SNP, specific activity vs DMSO and SNP) | sGC Enzyme Activity Increase at 10 μM without SNP (10 μM compound, without SNP, specific activity vs DMSO control) | SMILES |
| --- | --- | --- | --- | --- |
| C (C = 2 to <5 fold increase) | B (B = 1 to <2 fold increase) |  |  | Fc1ccccc1Cn1nc(-c2ncccn2)nc1-c1cocn1 [Compound I-46] |
| D (D = 5 to <10 fold increase) | B (B = 1 to <2 fold increase) |  |  | Fc1ccccc1Cn1nc(-c2ncccn2)nc1-c1cscn1 [Compound I-3] |
| D (D = 5 to <10 fold increase) | B (B = 1 to <2 fold increase) |  |  | Fc1ccccc1Cn1nc(-c2cscn2)nc1-c1nccs1 [Compound I-40] |
| D (D = 5 to <10 fold increase) | C (C = 2 to <5 fold increase) |  |  | Nc1ccnc(-c2nc(-c3nccs3)n(Cc3ccccc3F)n2)n1 [Compound I-48, 2-(1-(2-fluorobenzyl)-5-(thiazol-2-yl)-1H-1,2,4-triazol-3-yl)pyrimidin-4-amine] |
| D (D = 5 to <10 fold increase) | C (C = 2 to <5 fold increase) |  |  | COC(=O)N(C)c1c(N)nc(-c2nc(-c3nccs3)n(Cc3ccccc3F)n2)nc1N [Compound I-61, methyl 4,6-diamino-2-(1-(2-fluorobenzyl)-5-(thiazol-2-yl)-1H-1,2,4-triazol-3-yl)pyrimidin-5-yl(methyl)carbamate] |
| E (E = 10 to <20 fold increase) | C (C = 2 to <5 fold increase) |  |  | Fc1ccccc1Cn1nc(-c2ccccn2)nc1-c1cocn1 [Compound I-12, 4-(1-(2-fluorobenzyl)-3-(pyridin-2-yl)-1H-1,2,4-triazol-5-yl)oxazole] |
| F (F = 20 to <50 fold increase) | D (D = 5 to <10 fold increase) |  |  | Nc1ccnc(-c2nc(-c3nccs3)n(Cc3ccccc3F)n2)c1 [Compound I-44] |
| F (F = 20 to <50 fold increase) | D (D = 5 to <10 fold increase) |  |  | Nc1ccnc(-c2nc(-c3cscn3)n(Cc3ccccc3F)n2)c1 [Compound I-53, 2-(1-(2-fluorobenzyl)-5-(thiazol-4-yl)-1H-1,2,4-triazol-3-yl)pyridin-4-amine] |
| E (E = 10 to <20 fold increase) | D (D = 5 to <10 fold increase) |  |  | Fc1ccccc1Cn1nc(-c2ccccn2)nc1-c1nccs1 [Compound I-25] |
| E (E = 10 to <20 fold increase) | C (C = 2 to <5 fold increase) |  |  | Fc1ccccc1Cn1nc(-c2ccccn2)nc1-c1cscn1 [Compound I-4] |
| C (C = 2 to <5 fold increase) | C (C = 2 to <5 fold increase) | B (B = 1 to <2 fold increase) | B (B = 1 to <2 fold increase) | Fc1ccccc1Cn1nc(-c2ccccn2)nc1-c1ccccn1 [Compound I-1] |
| D (D = 5 to <10 fold increase) | D (D = 5 to <10 fold increase) |  |  | Fc1ccccc1Cn1nc(-c2ccccn2)nc1-c1ncco1 [Compound I-6] |
| C (C = 2 to <5 fold increase) | B (B = 1 to <2 fold increase) |  |  | Fc1ccccc1Cn1nc(-c2ncccn2)nc1-c1nccs1 [Compound I-30] |
| E (E = 10 to <20 fold increase) | C (C = 2 to <5 fold increase) |  |  | Fc1ccccc1Cn1nc(-c2nccs2)nc1-c1cscn1 [Compound I-41] |
| E (E = 10 to <20 fold increase) | C (C = 2 to <5 fold increase) |  |  | Fc1ccc(-c2nc(-c3nccs3)n(Cc3ccccc3F)n2)nc1 [Compound I-38] |
| C (C = 2 to <5 fold increase) | B (B = 1 to <2 fold increase) |  |  | Fc1ccccc1Cn1nc(-c2ccccn2)nc1-n1cncn1 [Compound I-50, 2′-(2-fluorobenzyl)-5′-(pyridin-2-yl)-2′H-1,3′-bi(1′,2′,4-triazole)] |

From patent US9061030B2, “sGC stimulators” (IRONWOOD PHARMACEUTICALS, INC., priority 2010, dated 2015)
